pIC50: −log10 of the molar value.
What was measured:
DHODH = DHODH (Rattus norvegicus, UniProt Q63707); assay: Inhibition assay of DHODH activity (column headed 'rate'); assay type: biochemical; details: class symbols, key in nM
Description: (§1) The standard assay mixture contained 50 μM decyclo ubichinone, 100 μM dihydroorotate, 60 μM 2,6-dichloroindophenol, as well as 20 mU DHODH. The volume activity of the recombinant enzyme used was 30 U/ml. Measurements were conducted in 50 mM TrisHCl (150 mM KCl, 0.1% Triton X-100, pH 8.0) at 30° C. in a final volume of 1 ml. The components were mixed, and the reaction was started by adding dihydroorotate. The course of reaction was followed by spectrophotometrically measuring the decrease in absorption at 600 nm for […].
(§2) Inhibitory studies were conducted in a standard assay with additional variable amounts of inhibitor. […] These investigations were carried out with recombinant human as well as with recombinant murine DHODH provided by Prof. M. Löffler, Marburg, Germany [M. Löffler, Chem. Biol. Interact.

recombinant human DHODH = target: T1, recombinant human DHODH (Homo sapiens, UniProt Q02127); assay: Inhibition assay of DHODH activity (human enzyme); assay type: biochemical; details: recombinant human DHODH; class symbols, key in nM; read-out: human IC50-Value
T1 construct: Prof; M. Löffler, Marburg, Germany (gift)
T1 sequence (Q02127 whole entry): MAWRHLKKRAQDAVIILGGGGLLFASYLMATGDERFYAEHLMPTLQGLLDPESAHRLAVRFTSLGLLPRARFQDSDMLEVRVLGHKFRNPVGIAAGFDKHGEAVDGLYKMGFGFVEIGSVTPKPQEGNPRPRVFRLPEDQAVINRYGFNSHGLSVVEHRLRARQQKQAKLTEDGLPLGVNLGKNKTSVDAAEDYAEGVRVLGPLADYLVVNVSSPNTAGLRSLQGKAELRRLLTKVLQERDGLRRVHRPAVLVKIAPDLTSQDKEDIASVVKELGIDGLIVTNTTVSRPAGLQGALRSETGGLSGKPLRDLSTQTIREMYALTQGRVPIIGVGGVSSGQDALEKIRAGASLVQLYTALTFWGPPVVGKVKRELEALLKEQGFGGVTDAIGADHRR
Description: as §1, §2

recombinant murine DHODH = target: T2, recombinant murine DHODH (Mus musculus, UniProt O35435); assay: Inhibition assay of DHODH activity (murine enzyme); assay type: biochemical; details: class symbols, key in nM
T2 construct: Prof; M. Löffler, Marburg, Germany (gift)
T2 sequence (O35435 whole entry): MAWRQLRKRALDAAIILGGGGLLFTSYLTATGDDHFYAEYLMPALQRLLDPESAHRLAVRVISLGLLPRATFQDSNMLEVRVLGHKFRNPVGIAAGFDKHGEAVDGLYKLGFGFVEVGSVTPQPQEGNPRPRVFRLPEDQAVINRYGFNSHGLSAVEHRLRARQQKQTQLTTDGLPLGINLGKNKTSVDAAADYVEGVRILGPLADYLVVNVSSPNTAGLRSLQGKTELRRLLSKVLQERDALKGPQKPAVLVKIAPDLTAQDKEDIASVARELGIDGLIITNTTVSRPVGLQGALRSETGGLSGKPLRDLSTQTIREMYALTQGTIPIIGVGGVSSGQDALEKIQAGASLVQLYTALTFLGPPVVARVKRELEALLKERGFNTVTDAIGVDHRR
Description: as §1, §2

[1] = test system: human lymphocyte cell proliferation; assay: Human lymphocyte cell proliferation (FIG. 1 legend); assay type: cell-based; details: concentration of 100 μM
[2] = Dynamic vapor sorption (water uptake); assay type: physicochemical
Description: DVS (SMS): Surface Measurement Systems Ltd. DVS-1 water vapour sorption analyzer. The sample is placed on a platinum sample pan and allowed to equilibrate at a given relative humidity (r.h.), usually 50% r.h. Then, a pre-defined humidity program was started with a scanning rate of 5% r.h. change per hour. First step: from 50% r.h. to 0% r.h. (in case of a possibly hydrate as starting material 50 to 95% r.h.), second step: from 0% to 95% r.h. (in case of a possibly hydrate as starting material 95 to 0% r.h.)

[3] = test system: Human peripheral blood mononuclear cells (PBMC), T-cell proliferation; assay: Proliferation assay of human T-cells (PHA-stimulated PBMC, BrdU ELISA); assay type: cell-based; details: PHA 20 μg/ml, 48 hours
Description: Human peripheral blood mononuclear cells (PBMC) were obtained from healthy volunteers and transferred to RPM11640 cell culture medium containing 10% dialyzed fetal calf serum. 80,000 cells per well were pipetted into a 96-well plate and phytohemagglutinin (PHA) was added in phosphate buffered saline to a final concentration of 20 μg/ml to stimulate T-cell proliferation. Vidofludimus was added in dimethyl sulfoxide (DMSO, final concentration: 0.1 Vol %) to final concentrations ranging from 20 nM to 50 μM. After incubation for 48 hours, cell proliferation was quantified using the “cell proliferation ELISA BrdU” (Roche) according to the manufacturer's instructions. […] (see FIG. 1).

[4] = Long-term stability, 18 months storage, HPLC; assay type: physicochemical
Description: HPLC: HPLC was performed with a Dionex UltiMate® 3000 liquid chromatograph comprising a solvent Rack, a vacuum degasser, a binary pump (mikro), a static mixer (500 μl), an autosampler, a 25 μl sample loop, a 100 μl syringe, a column oven and a DAD detector (semimicro measuring cell), which was set up for UV analysis. Data analysis was done with Chromeleon® 6.80 SP3. Compounds were separated at 30° C. on a Phenomenex Onyx™ Monolithic C18 50×2 mm column. The injection volume was 2 μl and the detection wavelength was 305 nm. As mobile phase, a gradient of 0.1% formic acid in HPLC grade water/acetonitrile was used, starting at a concentration of 5% acetonitrile. The starting concentration was held for 1 minute, then the gradient was ramped linearly to 95% acetonitrile over the course of 2 min, held for 0.7 min at 95% acetonitrile, after which it was returned to 5% acetonitrile within 0.1 min and kept constant for 0.7 min to re-equilibrate the column. The mobile phase flow rate was 1.5 ml/min.
The compounds were stored for 18 months at ambient conditions (20-25° C., 30-60% relative humidity) and subsequently analysed by HPLC for purity.

Sequence of DHODH (Q63707 whole entry): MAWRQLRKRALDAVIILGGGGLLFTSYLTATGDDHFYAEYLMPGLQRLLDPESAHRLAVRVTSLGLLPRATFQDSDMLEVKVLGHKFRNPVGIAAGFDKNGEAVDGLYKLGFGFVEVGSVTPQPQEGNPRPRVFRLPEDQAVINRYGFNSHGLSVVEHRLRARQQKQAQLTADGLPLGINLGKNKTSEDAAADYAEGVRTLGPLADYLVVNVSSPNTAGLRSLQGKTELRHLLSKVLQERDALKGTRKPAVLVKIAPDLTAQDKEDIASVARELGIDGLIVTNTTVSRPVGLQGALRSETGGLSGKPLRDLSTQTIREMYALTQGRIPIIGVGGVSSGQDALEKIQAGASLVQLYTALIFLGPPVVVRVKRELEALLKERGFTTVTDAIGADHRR

Row | Compound | IC50 (DHODH) [nM] | IC50 (recombinant human DHODH) [nM] | IC50 (recombinant murine DHODH) [nM] | Reduction of human lymphocyte cell proliferation [1] | % water uptake at 95% r.h. ([2]; 95% r.h.) [%] | % water uptake at 85% r.h. ([2]; about 85% r.h.) [%] | pIC50 [3] | Peak area ([4]; HPLC after 18 months storage at ambient conditions (20-25° C., 30-60% relative humidity)) [%] | Occurrence of hydrolysis product in HPLC after 18 months storage ([4]; ambient conditions (20-25° C., 30-60% relative humidity), LOD for hydrolysis product: 0.1 μg/ml)
1 | COc1ccccc1-c1cc(F)c(NC(=O)C2=C(C(=O)O)COC2)c(F)c1 [Compound 47, 4-((3,5-difluoro-2′-methoxy-[1,1′-biphenyl]-4-yl)carbamoyl)-2,5-dihydrofuran-3-carboxylic acid] | < 800 | < 800 | > 1500 |  |  |  |  |  | 
2 | O=C(O)C1=C(C(=O)Nc2ccc(-c3ccccc3)cc2)CCC1 [2-(Biphenyl-4-ylcarbamoyl)-cyclopent-1-enecarboxylic acid] |  |  |  | Reduction of human lymphocyte cell proliferation |  |  |  |  | 
3 | COc1cccc(-c2ccc(NC(=O)C3=C(C(=O)O)CCC3)c(F)c2)c1 [Compound 26, 2-((3-fluoro-3′-methoxy-[1,1′-biphenyl]-4-yl)carbamoyl)cyclopent-1-enecarboxylic acid] |  |  | > 1500 |  | 0.1 | 0.03 | 5.39 | >99 | Below LOD*
